Measurements taken from US10577363B2, “Substituted piperidine compounds” (EPIZYME, INC., priority 2014, dated 2020).

How the values were obtained:
SMYD3 [1] = target: T1, SMYD3 (Homo sapiens (Human), UniProt Q9H7B4); assay: SMYD3 biochemical assay (SPA, 3H-SAM methylation of MEKK2 protein substrate)
Method in brief: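 Tritium incorporation into GST-MEKK2 is counted by scintillation proximity after citric acid bead capture. Native human SMYD3 is preincubated with test compound for 30 min at room temperature at pH 8.0 (Tris-Cl, TCEP, BSG, Tween 20) before 3H-SAM and substrate are added; cold SAM at 100 uM final stops turnover.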

SMYD3 [2] = target: T1, SMYD3; assay: SMYD3 cell assay (Trimethyl-MEKK2 In-Cell Western in 293T/17 cells); assay type: cell-based
Method in brief: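 In-Cell Western ratio of trimethyl-Lys260 MEKK2 to anti-flag signal; percent inhibition from DMSO and maximum-inhibition controls, IC50 by non-linear regression, triplicates.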

[3] = read-out: SMYD3 Biochem IC50 (μM)*
[4] = 293T/17 cells, read-out: SMYD3 Cell IC50 (μM)*
[5] = Table 1A, IC50 values are an average of n = 1 to n = 50, read-out: SMYD3 Cell IC50
[6] = Table 1A, IC50 values are an average of n = 1 to n = 50, read-out: SMYD3 Biochem IC50

T1 sequence (Q9H7B4 whole entry): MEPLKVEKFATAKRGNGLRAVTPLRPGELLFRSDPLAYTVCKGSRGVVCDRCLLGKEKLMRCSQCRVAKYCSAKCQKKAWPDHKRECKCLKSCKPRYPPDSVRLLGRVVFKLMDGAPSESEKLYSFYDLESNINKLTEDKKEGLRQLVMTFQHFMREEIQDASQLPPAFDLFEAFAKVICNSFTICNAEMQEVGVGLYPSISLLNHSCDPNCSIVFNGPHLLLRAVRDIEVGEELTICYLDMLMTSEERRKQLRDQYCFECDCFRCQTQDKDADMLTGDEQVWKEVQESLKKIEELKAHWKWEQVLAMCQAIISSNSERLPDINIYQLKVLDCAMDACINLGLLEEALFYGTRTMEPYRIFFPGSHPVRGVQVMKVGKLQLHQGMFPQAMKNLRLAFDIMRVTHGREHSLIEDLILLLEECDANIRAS

IC50 (SMYD3 [1]; [3]) | IC50 (SMYD3 [2]; [4]) | Structure (SMILES) | IC50 (SMYD3 [1]; read-out: SMYD3 Biochem IC50) | IC50 (SMYD3 [2]; [5]) | IC50 (SMYD3 [1]; [6])
1.1 µM | 3.48 µM | CC(C)CNc1ccc(S(=O)(=O)N2CC[C@H](NC(=O)c3cc(C4CC4)on3)C[C@@H]2C)cn1 [compound 450, 5-cyclopropyl-N-((2S,4S)-1-((6-(isobutylamino)pyridin-3-yl)sulfonyl)-2-methylpiperidin-4-yl)isoxazole-3-carboxamide] | – | – | –
7.19 µM | > 10 µM | CC(C)CNc1ccc(S(=O)(=O)N2CC[C@@H](NC(=O)c3cc(C4CC4)on3)C[C@H]2C)cn1 [compound 453, 5-cyclopropyl-N-((2R,4R)-1-((6-(isobutylamino)pyridin-3-yl)sulfonyl)-2-methylpiperidin-4-yl)isoxazole-3-carboxamide] | – | – | –
2.36 µM | 4.58 µM | C[C@@H]1C[C@H](NC(=O)c2cc(C3CC3)on2)CCN1S(=O)(=O)c1ccc(NCCN2CCOCC2)nc1 [compound 459, 5-cyclopropyl-N-((2R,4R)-2-methyl-1-((6-((2-morpholinoethyl)amino)pyridin-3-yl)sulfonyl)piperidin-4-yl)isoxazole-3-carboxamide] | – | – | –
0.0142 µM | 3.85 µM | C[C@H]1C[C@@H](NC(=O)c2cc(C3CC3)on2)CCN1S(=O)(=O)c1ccc(N(C)CCN)nc1 [compound 461, N-((2S,4S)-1-((6-((2-aminoethyl)(methyl)amino)pyridin-3-yl)sulfonyl)-2-methylpiperidin-4-yl)-5-cyclopropylisoxazole-3-carboxamide] | – | – | –
0.163 µM | 4.33 µM | C[C@@H]1C[C@H](NC(=O)c2cc(C3CC3)on2)CCN1S(=O)(=O)c1ccc(N(C)CCN)nc1 [compound 463, N-((2R,4R)-1-((6-((2-aminoethyl)(methyl)amino)pyridin-3-yl)sulfonyl)-2-methylpiperidin-4-yl)-5-cyclopropylisoxazole-3-carboxamide] | – | – | –
0.0897 µM | 3.3 µM | C[C@@H]1C[C@H](NC(=O)c2cc(C3CC3)on2)CCN1S(=O)(=O)c1ccc(NCCN)nc1 [compound 464, N-((2R,4R)-1-((6-((2-aminoethyl)amino)pyridin-3-yl)sulfonyl)-2-methylpiperidin-4-yl)-5-cyclopropylisoxazole-3-carboxamide] | – | – | –
3.74 µM | 5.76 µM | CNc1ncccc1S(=O)(=O)N1CC[C@H](NC(=O)c2cc(C3CC3)on2)C[C@@H]1C [compound 467, 5-cyclopropyl-N-((2S,4S)-2-methyl-1-((2-(methylamino)pyridin-3-yl)sulfonyl)piperidin-4-yl)isoxazole-3-carboxamide] | – | – | –
0.0865 µM | 1.34 µM | C[C@H]1C[C@@H](NC(=O)c2cc(C3CC3)on2)CCN1S(=O)(=O)c1cccnc1NCCN [compound 475, N-((2S,4S)-1-((2-((2-aminoethyl)amino)pyridin-3-yl)sulfonyl)-2-methylpiperidin-4-yl)-5-cyclopropylisoxazole-3-carboxamide] | – | – | –
0.932 µM | 3.26 µM | C[C@H]1C[C@@H](NC(=O)c2cc(C3CC3)on2)CCN1S(=O)(=O)c1cccc(C(N)=O)c1 [compound 477, N-((2S,4S)-1-((3-carbamoylphenyl)sulfonyl)-2-methylpiperidin-4-yl)-5-cyclopropylisoxazole-3-carboxamide] | – | – | –
0.0658 µM | 2.24 µM | NCCCS(=O)(=O)N1CCC(NC(=O)c2cc(C3CC3)on2)C[C@@H]1c1ccccc1 (stereo partly drawn) [compound 480, N-((2R)-1-((3-aminopropyl)sulfonyl)-2-phenylpiperidin-4-yl)-5-cyclopropylisoxazole-3-carboxamide] | – | – | –
0.479 µM | 4.47 µM | NCCCS(=O)(=O)N1CCC(NC(=O)c2cc(C3CC3)on2)C[C@H]1c1ccccc1 (stereo partly drawn) [compound 481, N-((2S)-1-((3-aminopropyl)sulfonyl)-2-phenylpiperidin-4-yl)-5-cyclopropylisoxazole-3-carboxamide] | – | – | –
0.928 µM | 2.83 µM | C[C@H]1C[C@@H](NC(=O)c2cc(C3CC3)on2)CCN1S(=O)(=O)C1CCOC1 (stereo partly drawn) [compound 482, 5-cyclopropyl-N-((2S,4S)-2-methyl-1-((tetrahydrofuran-3-yl)sulfonyl)piperidin-4-yl)isoxazole-3-carboxamide] | – | – | –
0.533 µM | 2.13 µM | C[C@H]1C[C@@H](NC(=O)c2cc(C3CC3)on2)CCN1S(=O)(=O)c1c[nH]cn1 [compound 483, N-((2S,4S)-1-((1H-imidazol-4-yl)sulfonyl)-2-methylpiperidin-4-yl)-5-cyclopropylisoxazole-3-carboxamide] | – | – | –
– | – | O=C(NC1CC2CCCC(C1)N2S(=O)(=O)CC1CCCNC1)c1cc(C2CC2)on1 (stereo not drawn) [compound 488, 5-cyclopropyl-N-(9-((piperidin-3-ylmethyl)sulfonyl)-9-azabicyclo[3.3.1]nonan-3-yl)isoxazole-3-carboxamide] | 0.0451 µM | 0.857 µM | –
– | – | O=C(Nc1ccc(S(=O)(=O)N2[C@@H]3CC[C@H]2C[C@H](NC(=O)c2cc(C4CC4)on2)C3)cc1)c1ccncc1 [compound 489, 5-cyclopropyl-N-((1R,3s,5S)-8-((4-(isonicotinamido)phenyl)sulfonyl)-8-azabicyclo[3.2.1]octan-3-yl)isoxazole-3-carboxamide] | – | 6.66 µM | 5.42 µM
– | – | O=C1Cc2cc(S(=O)(=O)N3[C@@H]4CC[C@H]3C[C@H](NC(=O)c3cc(C5CC5)on3)C4)c(Cl)cc2N1 [compound 490, N-((1R,3s,5S)-8-((6-chloro-2-oxoindolin-5-yl)sulfonyl)-8-azabicyclo[3.2.1]octan-3-yl)-5-cyclopropylisoxazole-3-carboxamide] | – | > 10 µM | 9.23 µM
– | – | O=C(N[C@@H]1C[C@H]2CC[C@@H](C1)N2S(=O)(=O)c1cc2oc(=O)[nH]c2cc1Cl)c1cc(C2CC2)on1 [compound 491, N-((1R,3s,5S)-8-((5-chloro-2-oxo-2,3-dihydrobenzo[d]oxazol-6-yl)sulfonyl)-8-azabicyclo[3.2.1]octan-3-yl)-5-cyclopropylisoxazole-3-carboxamide] | – | > 10 µM | > 10 µM
– | – | O=C1Cc2cc(S(=O)(=O)N3[C@@H]4CC[C@H]3C[C@H](NC(=O)c3cc(C5CC5)on3)C4)ccc2N1 [compound 493, 5-cyclopropyl-N-((1R,3s,5S)-8-((2-oxoindolin-5-yl)sulfonyl)-8-azabicyclo[3.2.1]octan-3-yl)isoxazole-3-carboxamide] | – | 2.75 µM | 0.842 µM

Structure (SMILES) | IC50 (SMYD3 [1]; [3]) | IC50 (SMYD3 [2]; [4]) | IC50 (SMYD3 [1]; read-out: SMYD3 Biochem IC50) | IC50 (SMYD3 [2]; [5]) | IC50 (SMYD3 [1]; [6])
CNc1ccc(S(=O)(=O)N2CC[C@H](NC(=O)c3cc(C4CC4)on3)C[C@@H]2C)cn1 [compound 446, 5-cyclopropyl-N-((2S,4S)-2-methyl-1-((6-(methylamino)pyridin-3-yl)sulfonyl)piperidin-4-yl)isoxazole-3-carboxamide] | 0.89 µM | 2.25 µM | – | – | –
CNc1ccc(S(=O)(=O)N2CC[C@@H](NC(=O)c3cc(C4CC4)on3)C[C@H]2C)cn1 [compound 449, 5-cyclopropyl-N-((2R,4R)-2-methyl-1-((6-(methylamino)pyridin-3-yl)sulfonyl)piperidin-4-yl)isoxazole-3-carboxamide] | > 10 µM | > 10 µM | – | – | –
CC(C)CN(C)c1ccc(S(=O)(=O)N2CC[C@@H](NC(=O)c3cc(C4CC4)on3)C[C@H]2C)cn1 [compound 454, 5-cyclopropyl-N-((2R,4R)-1-((6-(isobutyl(methyl)amino)pyridin-3-yl)sulfonyl)-2-methylpiperidin-4-yl)isoxazole-3-carboxamide] | > 10 µM | > 10 µM | – | – | –
COCCN(C)c1ccc(S(=O)(=O)N2CC[C@@H](NC(=O)c3cc(C4CC4)on3)C[C@H]2C)cn1 [compound 455, 5-cyclopropyl-N-((2R,4R)-1-((6-((2-methoxyethyl)(methyl)amino)pyridin-3-yl)sulfonyl)-2-methylpiperidin-4-yl)isoxazole-3-carboxamide] | > 10 µM | > 10 µM | – | – | –
COCCNc1ccc(S(=O)(=O)N2CC[C@@H](NC(=O)c3cc(C4CC4)on3)C[C@H]2C)cn1 [compound 457, 5-cyclopropyl-N-((2R,4R)-1-((6-((2-methoxyethyl)amino)pyridin-3-yl)sulfonyl)-2-methylpiperidin-4-yl)isoxazole-3-carboxamide] | > 10 µM | > 10 µM | – | – | –
C[C@@H]1C[C@H](NC(=O)c2cc(C3CC3)on2)CCN1S(=O)(=O)c1ccc(N(C)CCN2CCOCC2)nc1 [compound 460, 5-cyclopropyl-N-((2R,4R)-2-methyl-1-((6-(methyl(2-morpholinoethyl)amino)pyridin-3-yl)sulfonyl)piperidin-4-yl)isoxazole-3-carboxamide] | > 10 µM | > 10 µM | – | – | –
CC(C)CNc1ccc(S(=O)(=O)N2C3CCCC2CC(NC(=O)c2cc(C4CC4)on2)C3)cn1 (stereo not drawn) [compound 465, 5-cyclopropyl-N-(9-((6-(isobutylamino)pyridin-3-yl)sulfonyl)-9-azabicyclo[3.3.1]nonan-3-yl)isoxazole-3-carboxamide] | 3.12 µM | 6.16 µM | – | – | –
C[C@H]1C[C@@H](NC(=O)c2cc(C3CC3)on2)CCN1C(=O)N1CCN(Cc2ccccc2)CC1 [compound 478, N-((2S,4S)-1-(4-benzylpiperazine-1-carbonyl)-2-methylpiperidin-4-yl)-5-cyclopropylisoxazole-3-carboxamide] | > 10 µM | > 10 µM | – | – | –
NCCCS(=O)(=O)N1[C@@H]2CC[C@H]1C[C@H](NC(=O)c1cc(C3CC3)on1)C2 [compound 484, N-((1R,3s,5S)-8-((3-aminopropyl)sulfonyl)-8-azabicyclo[3.2.1]octan-3-yl)-5-cyclopropylisoxazole-3-carboxamide] | 0.0792 µM | 1.44 µM | – | – | –
